“And” between values parts separate entries of the source, which are not always exact repeats. Identical values can stand only once.
Legend:
[1] = system: CA1 pyramidal neurons of organotypic hippocampal brain slices; experiment: Patch clamp of synaptic transmission in organotypic hippocampal slices; type: cell-based, rat
[2] = system: excitatory synapses in CA1 of organotypic hippocampal brain slices; experiment: Synaptic plasticity (LTP, LTD) in organotypic hippocampal slices; type: cell-based, rat; settings: p<0.05
Description: (§1) Interface cultures of hippocampal slices were made from 7–8 day old Sprague Dawley rats as previously described. Briefly, hippocampi were dissected in minimum essential medium (MEM; Invitrogen, Eugene, OR) with 15 mm HEPES and 10 mm Tris buffer (Invitrogen). Four-hundred micrometer slices were cultured on Millicell CM culture plate inserts (Millipore, Temecula, CA). The culture medium consisted of 50% MEM, 25% HBSS, and 25% horse serum, with 12.5 mM HEPES buffer and penicillin (100 U/ml)/streptomycin (100 µg/ml) (all from Invitrogen). Cultures were maintained in 5% CO2, at 37°C. Slices were maintained in vitro for one week prior to transfection.
Patch clamp recordings were made in oxygenated Artificial Cerebrospinal Fluid (ACSF) containing (in mM) 127 NaCl, 2.5 KCl, 1.3 MgSO4, 2.5 CaCl2, 1.25 Na2HPO4, 25 NaHCO3, 25 glucose. For voltage-clamp recordings patch pipette internal solution consisted of 120 Cs-methanesulfonate, 20 CsCl, 0.5 EGTA, 10 HEPES, 2.5 MgCl2, 4 Na2ATP, 0.3 NA3GTP, 10 Phosphocreatine, and 5 mM QX-314 Br. Miniature excitatory postsynaptic currents (mEPSCs) were recorded in the presence of 100 µM Picrotoxin (PTX) and 1 µM tetrodotoxin (TTX) at a holding potential of −70 mV. […] Significance of differences between mean frequencies or amplitudes of mEPSCs or mIPSCs were assessed using a student’s t-test. […]

[3] = system: Tg2576 mice; experiment: Tg2576 fear conditioning; type: in vivo, mouse; settings: 25 mg/kg or 50 mg/kg SAHA i.p. daily vs vehicle; p>0.05
[4] = system: C57BL/6 mice; experiment: SmartCube high-content behavioral phenotyping; type: in vivo, mouse; settings: for discrimination index: p<0.001
Description: SmartCube experiments were conducted at Psychogenics, Inc (Tarrytown, NY). […] The SmartCube® system can measure numerous spontaneous behaviors and responses to challenges in the same testing environment. The hardware includes force sensors and a number of aversive stimuli used to elicit behavior. Three high-resolution video cameras provide constant 3D view of the mouse in the SmartCube® apparatus throughout the testing period. Digital videos of the subjects were processed with computer vision algorithms to extract over 2,000 independent measures including frequency and duration of behavioral states such as grooming, rearing, etc., and many other features obtained during the test session. […] The database comprises 14 classes of drugs with some of the major classes, such as the antidepressant class, comprising several subclasses with representatives of most of the drugs in the market.

[5] = system: CA1 neurons of organotypic hippocampal brain slices; experiment: Current-clamp intrinsic excitability in organotypic hippocampal slices; type: cell-based, rat; settings: SAHA vs vehicle treated slices; p>0.05
Description: as §1
Patch clamp recordings were made in oxygenated Artificial Cerebrospinal Fluid (ACSF) containing (in mM) 127 NaCl, 2.5 KCl, 1.3 MgSO4, 2.5 CaCl2, 1.25 Na2HPO4, 25 NaHCO3, 25 glucose. For voltage-clamp recordings patch pipette internal solution consisted of 120 Cs-methanesulfonate, 20 CsCl, 0.5 EGTA, 10 HEPES, 2.5 MgCl2, 4 Na2ATP, 0.3 NA3GTP, 10 Phosphocreatine, and 5 mM QX-314 Br. Miniature excitatory postsynaptic currents (mEPSCs) were recorded in the presence of 100 µM Picrotoxin (PTX) and 1 µM tetrodotoxin (TTX) at a holding potential of −70 mV. Miniature inhibitory postsynaptic currents (mIPSCs) were recorded in the presence of 10 µM 2,3-Dioxo-6-nitro-1,2,3,4-tetrahydrobenzo[f]quinoxaline-7-sulfonamide (NBQX), 50 µM D-(−)-2-Amino-5-phosphonopentanoic acid (D-AP5) and 1 µM TTX at a holding potential of 0 mV. Significance of differences between mean frequencies or amplitudes of mEPSCs or mIPSCs were assessed using a student’s t-test. […]. For experiments measuring open NMDAR block synaptic inputs were stimulated locally using a bipolar stimulation electrode and NMDAR EPSCs were isolated using NBQX and PTX and measured at −70 mV with external MgCl2 lowered to 0.5 mM. […] For synaptic plasticity experiments synaptic inputs were stimulated locally using a bipolar stimulation electrode and EPSCs were measured at −70 mV. […] Significance of differences in normalized EPSC amplitudes between treatment groups following plasticity induction were assessed using a student’s t-test. […] Action potential threshold was measured during the smallest depolarizing current injection steps that triggered spiking. Input resistance was calculated from the steady-state response to the smallest hyperpolarizing current injection steps to avoid contamination from hyperpolarization-induced inward currents (h-current). The h-current “sag” was measured based on the difference between the maximal and steady-state voltage responses to strong hyperpolarizing current injection steps. Significance of differences in all measures between treatment groups were assessed using a student’s t-test.

[6] = system: Tg2576 mice; experiment: Open field test in Tg2576 mice; type: in vivo, mouse; settings: dosing day 32, 30 minutes, mean ±SEM
[7] = Pharmacokinetic study after single i.p. injection
[8] = Protein binding in plasma and brain; type: in vitro ADME
[9] = 0.5 µM SAHA for 3–4 days vs vehicle, p>0.05
[10] = single injection, valproate 225 mg/kg

## O=C(CCCCCCC(=O)Nc1ccccc1)NO [SAHA, Suberoylanilide hydroxamic acid]
[1]; 0.5 µM SAHA for 3–4 days vs vehicle, p<0.05
  median amplitude of mEPSCs: significantly increased
[1]; [9]
  amplitude of mIPSCs: did not significantly alter
  frequency of mIPSCs: did not significantly alter
  mEPSC frequency (median interval between events): no significant change
[1]; repetitive stimulation, SAHA vs vehicle treated slices, p>0.05
  rate of NMDAR EPSC blockade by MK-801: not different
[2]; induction protocol subthreshold in vehicle treated slices
  LTP induction: readily evoked LTP
[2]; protocol that readily induced LTD in vehicle treated slices
  LTD induction: could not produce LTD
[3]
  percentage of time freezing in response to the context, altered context, or cue: no effect of treatment
  percentage of time spent freezing during conditioning: no effect of treatment
[4]; daily for 14 days, higher dose of SAHA (150 mg/kg)
  behavioral activity: not behaviorally active
[4]; daily for 14 days, lower dose of SAHA (50 mg/kg)
  drug class activity signature: not consistent with any known therapeutic signal
[4]; single injection of 50 mg/kg or 150 mg/kg SAHA
  behavioral activity: behaviorally inactive
[5]
  action potential threshold: unaltered
  input resistance: unaltered
  membrane sag (hyperpolarization-induced inward current): unaltered
  number of action potentials elicited by 500 ms current injection pulses: no difference
[6]; 25 mg/kg i.p. daily
  total distance traveled in the open field test: 39.6±6.1 m
[6]; 50 mg/kg i.p. daily
  total distance traveled in the open field test: 34.2±5.2 m
[7]; 50 mg/kg i.p.
  AUClast of free SAHA in the brain: 70 nM·h
  Cmax of free SAHA in the brain: 0.11 ± 0.02 µM and 0.11 µM
[7]; 150 mg/kg i.p.
  AUClast of free SAHA in the brain: 360 nM·h
  Cmax of free SAHA in the brain: 0.10 ± 0.01 µM
[8]; brain
  bound to protein, brain: 87.0%
[8]; plasma
  bound to protein, plasma: 40.7%

## CCCC(CCC)C(=O)O [valproate]
[4]; daily for 14 days, valproate
  drug class activity signature: predominantly anxiolytic signature
  discrimination index: 98%
[4]; [10]
  drug class activity signature: strong anxiolytic signature and a mild psychostimulant signature
  discrimination index: 100%
